Holding throughout (experiment): In vitro competitive activity-based protein profiling (gel-based, FP-Rh or HT-01 probe)
Format in all cases: biochemical

Experiment [1] concerns the target T1, ABHD6 (Mus musculus, UniProt Q8R2Y0).
T1 construct: Proteomes (mouse brain membrane fraction or cell lysates); from tissue; host or cells: mouse brain membrane fraction (or cell lysates, not specified)
T1 sequence (Q8R2Y0 1-336): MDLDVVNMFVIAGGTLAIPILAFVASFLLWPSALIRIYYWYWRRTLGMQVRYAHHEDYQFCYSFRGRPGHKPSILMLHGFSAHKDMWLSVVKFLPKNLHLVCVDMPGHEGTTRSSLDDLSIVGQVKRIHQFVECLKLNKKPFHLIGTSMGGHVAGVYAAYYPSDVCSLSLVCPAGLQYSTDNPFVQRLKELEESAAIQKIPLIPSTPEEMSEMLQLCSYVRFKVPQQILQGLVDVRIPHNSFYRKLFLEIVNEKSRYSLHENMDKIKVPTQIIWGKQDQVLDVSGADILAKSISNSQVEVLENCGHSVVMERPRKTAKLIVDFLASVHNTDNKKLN
The following applies: for inhibition at 1 µM: 1 μM inhibitor, read-out: % Inhibition at 1 μM, C = ABHD6; for inhibition at 10 µM: 10 μM inhibitor, read-out: % Inhibition at 10 μM, C = ABHD6; for IC50: mouse brain membrane fraction or cell lysates, 30 min preincubation at 37° C., read-out: Mouse (IC50 value, nM) ABHD6. In outline: (§1)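 Mouse brain membrane proteome or cell lysate (1.0 mg/mL protein) was preincubated with inhibitor at varying concentrations for 30 min at 37° C, then labelled with FP-Rh or HT-01 for 30 min at 37° C. After SDS-PAGE, residual hydrolase activity was quantified as in-gel fluorescence of each band.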

Experiment [2] deals with T2, FAAH (Mus musculus, UniProt O08914).
T2 construct: Proteomes (mouse brain membrane fraction or cell lysates); from tissue; host or cells: mouse brain membrane fraction (or cell lysates, not specified)
T2 sequence (O08914 1-579): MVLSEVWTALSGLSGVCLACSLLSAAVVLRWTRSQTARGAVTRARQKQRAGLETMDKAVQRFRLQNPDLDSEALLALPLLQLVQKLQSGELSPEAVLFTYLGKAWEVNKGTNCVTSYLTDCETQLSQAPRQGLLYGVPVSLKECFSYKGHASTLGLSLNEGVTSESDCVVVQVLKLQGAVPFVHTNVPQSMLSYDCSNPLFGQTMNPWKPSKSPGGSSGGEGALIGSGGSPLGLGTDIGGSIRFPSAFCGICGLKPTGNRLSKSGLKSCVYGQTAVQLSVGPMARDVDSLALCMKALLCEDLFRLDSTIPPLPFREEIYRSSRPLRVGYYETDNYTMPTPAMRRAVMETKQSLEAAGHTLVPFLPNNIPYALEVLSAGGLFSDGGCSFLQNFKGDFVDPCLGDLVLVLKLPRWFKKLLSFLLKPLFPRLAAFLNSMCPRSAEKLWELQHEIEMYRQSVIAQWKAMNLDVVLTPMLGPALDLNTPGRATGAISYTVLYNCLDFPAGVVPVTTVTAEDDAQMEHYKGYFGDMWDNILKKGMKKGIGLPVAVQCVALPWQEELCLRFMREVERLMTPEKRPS
The following applies: for inhibition at 1 µM: 1 μM inhibitor, read-out: % Inhibition at 1 μM, B = FAAH; for inhibition at 10 µM: 10 μM inhibitor, read-out: % Inhibition at 10 μM, B = FAAH. In outline: as §1

Experiment [3] concerns the target T3, MAGL (Mus musculus, UniProt O35678).
T3 construct: Proteomes (mouse brain membrane fraction or cell lysates); from tissue; host or cells: mouse brain membrane fraction (or cell lysates, not specified)
T3 sequence (O35678 1-303): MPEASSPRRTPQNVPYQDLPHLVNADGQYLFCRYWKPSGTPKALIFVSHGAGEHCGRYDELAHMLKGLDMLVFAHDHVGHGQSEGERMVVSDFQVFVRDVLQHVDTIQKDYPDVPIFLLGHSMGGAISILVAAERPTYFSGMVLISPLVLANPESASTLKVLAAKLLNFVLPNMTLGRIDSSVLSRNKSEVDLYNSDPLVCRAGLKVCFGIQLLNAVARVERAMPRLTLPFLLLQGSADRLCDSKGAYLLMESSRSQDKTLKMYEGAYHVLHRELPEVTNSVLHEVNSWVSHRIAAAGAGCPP
The following applies: for inhibition at 1 µM: 1 μM inhibitor; for inhibition at 10 µM: 10 μM inhibitor. In outline: as §1

Experiment [4] has as its target T4, PLA2G7 (Mus musculus, UniProt Q60963).
T4 construct: Proteomes (mouse brain membrane fraction or cell lysates); from tissue; host or cells: mouse brain membrane fraction (or cell lysates, not specified)
T4 sequence (Q60963 22-440): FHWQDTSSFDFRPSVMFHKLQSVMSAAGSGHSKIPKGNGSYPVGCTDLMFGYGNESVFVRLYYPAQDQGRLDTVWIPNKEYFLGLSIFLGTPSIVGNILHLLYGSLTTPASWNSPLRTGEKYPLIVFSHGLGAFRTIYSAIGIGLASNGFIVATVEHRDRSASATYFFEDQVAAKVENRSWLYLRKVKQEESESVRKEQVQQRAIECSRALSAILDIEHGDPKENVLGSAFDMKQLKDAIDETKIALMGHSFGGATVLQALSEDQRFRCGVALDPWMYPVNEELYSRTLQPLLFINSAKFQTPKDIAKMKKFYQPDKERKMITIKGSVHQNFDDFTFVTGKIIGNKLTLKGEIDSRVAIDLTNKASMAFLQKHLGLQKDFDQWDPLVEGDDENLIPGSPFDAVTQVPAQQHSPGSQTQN
The following applies: for inhibition at 1 µM: 1 μM inhibitor, read-out: % Inhibition at 1 μM, D = PLA2G7; for inhibition at 10 µM: 10 μM inhibitor, read-out: % Inhibition at 10 μM, D = PLA2G7. In outline:
as §1

Bounds are passed on as bounds.

What is called inhibition is the drop in the measured response relative to a control, in per cent. The IC50 is the concentration at which inhibition is half-maximal. Turning to `O=C(N1CCN(Cc2ccc3c(c2)OCO3)CC1)n1cc(-c2ccccc2)cn1` [Example 58, (4-(Benzo[d][1,3]dioxol-5-ylmethyl)piperazin-1-yl)(4-phenyl-1H-pyrazol-1-yl)methanone], the inhibition at 1 µM in experiment [1] is above 75%; in experiment [2], above 75%; in experiment [3], below 25%; in experiment [4], above 75%. Also, the inhibition at 10 µM in experiment [1], in experiment [2], in experiment [3] and in experiment [4] was above 75% each time. In addition, in experiment [1], the IC50 is 100 to 1000 nM.

For the compound `O=C(N1CCN(Cc2ccncc2)CC1)n1cc(-c2ccccc2)cn1` [Example 59, (4-Phenyl-1H-pyrazol-1-yl)(4-(pyridin-4-ylmethyl)piperazin-1-yl)methanone], the inhibition at 1 µM in experiment [1] and in experiment [4] was above 75% each time. The inhibition at 10 µM in experiment [1] was above 75%; in experiment [2], above 75%; in experiment [3], 25 to 75%; in experiment [4], above 75%. Besides, the IC50 in experiment [1] lay within 100 to 1000 nM.

In the case of `O=C(N1CCN(Cc2cccnc2)CC1)n1cc(-c2ccccc2)cn1` [Example 60, (4-Phenyl-1H-pyrazol-1-yl)(4-(pyridin-3-ylmethyl)piperazin-1-yl)methanone], the inhibition at 1 µM in experiment [1] and in experiment [4] was above 75% throughout. Besides, the inhibition at 10 µM in experiment [1] was above 75%; in experiment [2] it was above 75%; in experiment [3], 25 to 75%; in experiment [4], above 75%. Also, in experiment [1], the IC50 was in the range of 100 to 1000 nM.

For the compound `O=C(N1CCN(Cc2ccccn2)CC1)n1cc(-c2ccccc2)cn1` [Example 61, (4-Phenyl-1H-pyrazol-1-yl)(4-(pyridin-2-ylmethyl)piperazin-1-yl)methanone], the inhibition at 1 µM in experiment [1] and in experiment [4] was above 75% each time. Also, the inhibition at 10 µM in experiment [1] was above 75%; in experiment [2] it was above 75%; in experiment [3], below 25%; in experiment [4], above 75%.

For the compound `O=C(N1CCN(Cc2ccncn2)CC1)n1cc(-c2ccccc2)cn1` [Example 62, (4-Phenyl-1H-pyrazol-1-yl)(4-(pyrimidin-4-ylmethyl)piperazin-1-yl)methanone], the inhibition at 1 µM in experiment [1] and in experiment [4] was above 75% throughout. Moreover, the inhibition at 10 µM was above 75% in experiment [1], above 75% in experiment [2], below 25% in experiment [3] and above 75% in experiment [4].

For `O=C(N1CCN(Cc2nccs2)CC1)n1cc(-c2ccccc2)cn1` [Example 63, (4-Phenyl-1H-pyrazol-1-yl)(4-(thiazol-2-ylmethyl)piperazin-1-yl)methanone], the inhibition at 1 µM in experiment [1] and in experiment [4] was above 75% in each case. Further, the inhibition at 10 µM in experiment [1] was above 75%; in experiment [2], above 75%; in experiment [3], below 25%; in experiment [4] it was above 75%. Moreover, in experiment [1], the IC50 fell in the range of 100 to 1000 nM.

With `O=C(N1CCN(Cc2cncnc2)CC1)n1cc(-c2ccccc2)cn1` [Example 64, (4-Phenyl-1H-pyrazol-1-yl)(4-(pyrimidin-5-ylmethyl)piperazin-1-yl)methanone], the inhibition at 1 µM in experiment [1] and in experiment [4] was above 75% in each case. Besides, the inhibition at 10 µM was above 75% in experiment [1], below 25% in experiment [2], below 25% in experiment [3] and above 75% in experiment [4].

Regarding `Cc1cc(-c2ccccc2)ccc1CN1CCN(C(=O)n2cc(-c3ccccc3)cn2)CC1` [Example 65, (4-((3-Methyl-[1,1′-biphenyl]-4-yl)methyl)piperazin-1-yl)(4-phenyl-1H-pyrazol-1-yl)methanone], the inhibition at 1 µM in experiment [1] is above 75%; in experiment [2], above 75%; in experiment [3], below 25%; in experiment [4] it was above 75%. Besides, the inhibition at 10 µM in experiment [1], in experiment [2], in experiment [3] and in experiment [4] was above 75% in each case.

For the compound `O=C(c1cnn(C(=O)N2CCN(C(c3ccc(Cl)cc3)c3ccc(Cl)cc3)CC2)c1)N1CCOCC1` [Example 67, (4-(Bis(4-chlorophenyl)methyl)piperazin-1-yl)(4-(morpholine-4-carbonyl)-1H-pyrazol-1-yl)methanone], the inhibition at 1 µM was above 75% in experiment [1], below 25% in experiment [2], above 75% in experiment [3] and above 75% in experiment [4]. For the same compound, the inhibition at 10 µM in experiment [1] is above 75%; in experiment [2], 25 to 75%; in experiment [3] it was above 75%; in experiment [4] it was above 75%. Further, the IC50 was 100 to 1000 nM in experiment [1]; above 1000 nM in experiment [2] (mouse brain membrane fraction or cell lysates, 30 min preincubation at 37° C., read-out: Mouse (IC50 value, nM) FAAH); 100 to 1000 nM in experiment [3] (mouse brain membrane fraction or cell lysates, 30 min preincubation at 37° C., read-out: Mouse (IC50 value, nM) MAGL).

Consider `O=C(c1cnn(C(=O)N2CCN(Cc3ccc4c(c3)OCO4)CC2)c1)N1CCCCC1` [Example 69, (4-(Benzo[d][1,3]dioxol-5-ylmethyl)piperazin-1-yl)(4-(piperidine-1-carbonyl)-1H-pyrazol-1-yl)methanone], for which the inhibition at 1 µM was above 75% in experiment [1], above 75% in experiment [2], 25 to 75% in experiment [3] and above 75% in experiment [4]. In addition, the inhibition at 10 µM in experiment [1], in experiment [2], in experiment [3] and in experiment [4] was above 75% in each case.

With `O=C(c1cnn(C(=O)N2CCN(Cc3ccncc3)CC2)c1)N1CCCCC1` [Example 70, Piperidin-1-yl(1-(4-(pyridin-4-ylmethyl)piperazine-1-carbonyl)-1H-pyrazol-4-yl)methanone], the inhibition at 1 µM was 25 to 75% in experiment [1], below 25% in experiment [2], below 25% in experiment [3] and above 75% in experiment [4]. For the same compound, the inhibition at 10 µM in experiment [1] was above 75%; in experiment [2], 25 to 75%; in experiment [3], below 25%; in experiment [4] it was above 75%.

In the case of `O=C(c1cnn(C(=O)N2CCN(Cc3cccnc3)CC2)c1)N1CCCCC1` [Example 71, Piperidin-1-yl(1-(4-(pyridin-3-ylmethyl)piperazine-1-carbonyl)-1H-pyrazol-4-yl)methanone], the inhibition at 1 µM is 25 to 75% in experiment [1], below 25% in experiment [2], below 25% in experiment [3] and above 75% in experiment [4]. Further, the inhibition at 10 µM was above 75% in experiment [1], 25 to 75% in experiment [2], below 25% in experiment [3] and above 75% in experiment [4].

The values above are taken from patent US10093630B2, “Pyrazole compounds and methods of making and using same” (ABIDE THERAPEUTICS, INC., priority 2014, dated 2018).
